{"source": "patent US12063932B2", "about": "“Method of promoting plant growth effects” (Bayer CropScience Aktiengesellschaft, priority 2016, dated 2024)", "format_in_all_cases": "in vivo", "key": {"[1]": {"tested_on": "Soybean seeds of the variety Merlin", "test": "Soybean seed treatment: plant height, fresh and dry weight of stem and roots after 19 days (Example A)", "conditions": "for dry weight roots, % of untreated control / dry weight stem, % of untreated control / fresh weight roots, % of untreated control / fresh weight stem, % of untreated control: untreated control given as 100", "description": "Soybean seeds of the variety Merlin were treated with 1.2, 0.6 and 0.3 g of compound (A) per 100 kg seeds. Compound (A) was provided as an aqueous solution with a concentration of 1000 ppm compound (A). The treated seeds were seeded into soil/quartz in five replicates at the same day. Germination was observed four days later. Plant height, fresh and dry weight of stem and roots were determined after 19 days."}, "[2]": {"tested_on": "Roses of the variety Kordana Mixkar", "test": "Rose foliar application: number of flowers by visual inspection (Example D)", "conditions": "for No Flowers, Average (A to E): average of five replicates, untreated controls 9.4 and 10.2; for No Flowers, A: replicate A; for No Flowers, A / No Flowers, B / No Flowers, C / No Flowers, D / No Flowers, E: assessed 2016-06-14; for No Flowers, B: replicate B; for No Flowers, C: replicate C; for No Flowers, D: replicate D; for No Flowers, E: replicate E", "description": "FIGS. 2A-2H. Rose plants of the variety Kordana Mixkar were treated in five replicates. Untreated control is shown in FIG. 2A (side view) and FIG. 2B (top view). Treatment at 1 ppm is shown in FIG. 2C (side view) and FIG. 2D (top view). Treatment at 80 ppm is shown in FIG. 2E (side view) and FIG. 2F (top view). Treatment at 420 ppm is showing in FIG. 2G (side view) and FIG. 2H (top view). Rose plants were evaluated for quantity and fullness of flowers.\nRoses of the variety Kordana Mixkar were cultivated in 2 litre pots in soil in the greenhouse at 23 degree Celsius and 80% humidity. Compound (A) and Clopyralid as a comparison were applied as a foliar application on 2016-05-25 at application rates according to the following table 3 Ammonium sulfate and methylated soybean oil were used as penetration enhancing agents.\nRose plants were treated in five replicates. The number of flowers was assessed by visual inspection on 2016-06-14."}, "[3]": {"tested_on": "Soybean seeds of the variety Merlin", "test": "Soybean seed treatment: root volume after 19 days (Example B)", "conditions": "untreated control 0.82", "description": "Soybean seeds of the variety Merlin were treated with 1.2, 0.6 and 0.3 g of compound (A) per 100 kg seeds. Compound (A) was provided as an aqueous solution with a concentration of 1000 ppm compound (A). The treated seeds were seeded into soil/quartz in five replicates at the same day. Germination was observed four days later. Root volume was determined after 19 days."}, "[4]": {"tested_on": "Soybean seeds of the variety Merlin", "test": "Soybean seed treatment: comparative photographs of seedlings after 19 days (Example C)", "description": "FIGS. 1A-1H. Soybean seeds of the variety Merlin were untreated FIG. 1A (top view) and FIG. 1B (side view), or treated 1.2 g/100 kg/seeds of Compound (A) in FIG. 1C (top view) and FIG. 1D (side view); or treated with 0.6 g/100 kg seeds of Compound (A) in FIG. 1E (Lop view) and FIG. 1F (side view); or treated with 0.3 g/100 kg seeds of compound (A) in FIG. 1G (top view) and FIG. 1H (side view). Seedlings were evaluated after 19 days. Soybean seeds of the variety Merlin were treated with 1.2, 0.6 and 0.3 g of compound (A) per 100 kg seeds. Compound (A) was provided as an aqueous solution with a concentration of 1000 ppm compound (A). The treated seeds were seeded into soil/quartz in five replicates at the same day. Germination was observed four days later. Comparative photographs were taken after 19 days."}, "[5]": {"conditions": "seed treatment 0.3 g/100 kg seeds"}, "[6]": {"conditions": "seed treatment 0.6 g/100 kg seeds"}, "[7]": {"conditions": "seed treatment 1.2 g/100 kg seeds"}, "[8]": {"conditions": "0.3 g/100 kg seeds, photographs after 19 days (FIGS. 1G, 1H)"}, "[9]": {"conditions": "0.6 g/100 kg seeds, photographs after 19 days (FIGS. 1E, 1F)"}}, "data": [{"smiles": "O=C(O)c1ncc(C(F)(F)F)cc1Cl", "note": "[Compound (A), 3-chloro-5-(trifluoromethyl)pyridine-2-carboxylic acid]", "values": [{"measurement": "Fresh weight plant", "setting": "[1]; [5]", "result": 2.62, "unit": "g"}, {"measurement": "Plant height [% of untreated control]", "setting": "[1]; [5]", "result": "111 % of untreated control"}, {"measurement": "dry weight roots, % of untreated control", "setting": "[1]; [5]", "result": 105, "unit": "%"}, {"measurement": "dry weight stem, % of untreated control", "setting": "[1]; [5]", "result": 114, "unit": "%"}, {"measurement": "fresh weight roots, % of untreated control", "setting": "[1]; [5]", "result": 106, "unit": "%"}, {"measurement": "fresh weight stem, % of untreated control", "setting": "[1]; [5]", "result": 103, "unit": "%"}, {"measurement": "Fresh weight plant", "setting": "[1]; [6]", "result": 2.53, "unit": "g"}, {"measurement": "Plant height [% of untreated control]", "setting": "[1]; [6]", "result": "103 % of untreated control"}, {"measurement": "dry weight roots, % of untreated control", "setting": "[1]; [6]", "result": 108, "unit": "%"}, {"measurement": "dry weight stem, % of untreated control", "setting": "[1]; [6]", "result": 107, "unit": "%"}, {"measurement": "fresh weight roots, % of untreated control", "setting": "[1]; [6]", "result": 107, "unit": "%"}, {"measurement": "fresh weight stem, % of untreated control", "setting": "[1]; [6]", "result": 100, "unit": "%"}, {"measurement": "Fresh weight plant", "setting": "[1]; [7]", "result": 2.24, "unit": "g"}, {"measurement": "Plant height [% of untreated control]", "setting": "[1]; [7]", "result": "87 % of untreated control"}, {"measurement": "dry weight roots, % of untreated control", "setting": "[1]; [7]", "result": 68, "unit": "%"}, {"measurement": "dry weight stem, % of untreated control", "setting": "[1]; [7]", "result": 77, "unit": "%"}, {"measurement": "fresh weight roots, % of untreated control", "setting": "[1]; [7]", "result": 69, "unit": "%"}, {"measurement": "fresh weight stem, % of untreated control", "setting": "[1]; [7]", "result": 88, "unit": "%"}, {"measurement": "No Flowers, Average (A to E)", "setting": "[2]; 1 ppm foliar", "result": 9.6}, {"measurement": "No Flowers, A", "setting": "[2]; 1 ppm foliar", "result": 8}, {"measurement": "No Flowers, B", "setting": "[2]; 1 ppm foliar", "result": 7}, {"measurement": "No Flowers, C", "setting": "[2]; 1 ppm foliar", "result": 11}, {"measurement": "No Flowers, D", "setting": "[2]; 1 ppm foliar", "result": 10}, {"measurement": "No Flowers, E", "setting": "[2]; 1 ppm foliar", "result": 12}, {"measurement": "No Flowers, Average (A to E)", "setting": "[2]; 10 ppm foliar", "result": 10.2}, {"measurement": "No Flowers, A", "setting": "[2]; 10 ppm foliar", "result": 11}, {"measurement": "No Flowers, B", "setting": "[2]; 10 ppm foliar", "result": 10}, {"measurement": "No Flowers, C", "setting": "[2]; 10 ppm foliar", "result": 10}, {"measurement": "No Flowers, D", "setting": "[2]; 10 ppm foliar", "result": 10}, {"measurement": "No Flowers, E", "setting": "[2]; 10 ppm foliar", "result": 10}, {"measurement": "No Flowers, Average (A to E)", "setting": "[2]; 20 ppm foliar", "result": 10.6}, {"measurement": "No Flowers, A", "setting": "[2]; 20 ppm foliar", "result": 11}, {"measurement": "No Flowers, B", "setting": "[2]; 20 ppm foliar", "result": 10}, {"measurement": "No Flowers, C", "setting": "[2]; 20 ppm foliar", "result": 12}, {"measurement": "No Flowers, D", "setting": "[2]; 20 ppm foliar", "result": 10}, {"measurement": "No Flowers, E", "setting": "[2]; 20 ppm foliar", "result": 10}, {"measurement": "No Flowers, Average (A to E)", "setting": "[2]; 40 ppm foliar", "result": 11.2}, {"measurement": "No Flowers, A", "setting": "[2]; 40 ppm foliar", "result": 11}, {"measurement": "No Flowers, B", "setting": "[2]; 40 ppm foliar", "result": 8}, {"measurement": "No Flowers, C", "setting": "[2]; 40 ppm foliar", "result": 13}, {"measurement": "No Flowers, D", "setting": "[2]; 40 ppm foliar", "result": 12}, {"measurement": "No Flowers, E", "setting": "[2]; 40 ppm foliar", "result": 12}, {"measurement": "No Flowers, Average (A to E)", "setting": "[2]; 80 ppm foliar", "result": 11.4}, {"measurement": "No Flowers, A", "setting": "[2]; 80 ppm foliar", "result": 12}, {"measurement": "No Flowers, B", "setting": "[2]; 80 ppm foliar", "result": 13}, {"measurement": "No Flowers, C", "setting": "[2]; 80 ppm foliar", "result": 11}, {"measurement": "No Flowers, D", "setting": "[2]; 80 ppm foliar", "result": 11}, {"measurement": "No Flowers, E", "setting": "[2]; 80 ppm foliar", "result": 10}, {"measurement": "No Flowers, Average (A to E)", "setting": "[2]; 170 ppm foliar", "result": 8.8}, {"measurement": "No Flowers, A", "setting": "[2]; 170 ppm foliar", "result": 8}, {"measurement": "No Flowers, B", "setting": "[2]; 170 ppm foliar", "result": 10}, {"measurement": "No Flowers, C", "setting": "[2]; 170 ppm foliar", "result": 10}, {"measurement": "No Flowers, D", "setting": "[2]; 170 ppm foliar", "result": 5}, {"measurement": "No Flowers, E", "setting": "[2]; 170 ppm foliar", "result": 11}, {"measurement": "No Flowers, Average (A to E)", "setting": "[2]; 250 ppm foliar", "result": 5.4}, {"measurement": "No Flowers, A", "setting": "[2]; 250 ppm foliar", "result": 3}, {"measurement": "No Flowers, B", "setting": "[2]; 250 ppm foliar", "result": 9}, {"measurement": "No Flowers, C", "setting": "[2]; 250 ppm foliar", "result": 3}, {"measurement": "No Flowers, D", "setting": "[2]; 250 ppm foliar", "result": 4}, {"measurement": "No Flowers, E", "setting": "[2]; 250 ppm foliar", "result": 8}, {"measurement": "No Flowers, Average (A to E)", "setting": "[2]; 420 ppm foliar", "result": 5}, {"measurement": "No Flowers, A", "setting": "[2]; 420 ppm foliar", "result": 8}, {"measurement": "No Flowers, B", "setting": "[2]; 420 ppm foliar", "result": 7}, {"measurement": "No Flowers, C", "setting": "[2]; 420 ppm foliar", "result": 3}, {"measurement": "No Flowers, D", "setting": "[2]; 420 ppm foliar", "result": 4}, {"measurement": "No Flowers, E", "setting": "[2]; 420 ppm foliar", "result": 3}, {"measurement": "No Flowers, Average (A to E)", "setting": "[2]; 850 ppm foliar", "result": 5.2}, {"measurement": "No Flowers, A", "setting": "[2]; 850 ppm foliar", "result": 2}, {"measurement": "No Flowers, B", "setting": "[2]; 850 ppm foliar", "result": 3}, {"measurement": "No Flowers, C", "setting": "[2]; 850 ppm foliar", "result": 10}, {"measurement": "No Flowers, D", "setting": "[2]; 850 ppm foliar", "result": 5}, {"measurement": "No Flowers, E", "setting": "[2]; 850 ppm foliar", "result": 6}, {"measurement": "quantity and fullness of flowers versus untreated controls", "setting": "[2]; foliar application, up to a concentration of 80 ppm, FIGS. 2C-2H", "result": "more and fuller flowers than the untreated controls"}, {"measurement": "Root volume [cm^3]", "setting": "[3]; [5]", "result": 0.83, "unit": "cm^3"}, {"measurement": "Root volume [cm^3]", "setting": "[3]; [6]", "result": 0.96, "unit": "cm^3"}, {"measurement": "Root volume [cm^3]", "setting": "[3]; [7]", "result": 0.50, "unit": "cm^3"}, {"measurement": "biomass of leaves in comparison to the untreated control", "setting": "[4]; [8]", "result": "increased biomass of leaves"}, {"measurement": "growth of the seedlings in comparison to the untreated control", "setting": "[4]; [8]", "result": "higher growth of the seedlings"}, {"measurement": "biomass of leaves in comparison to the untreated control", "setting": "[4]; [9]", "result": "increased biomass of leaves"}, {"measurement": "growth of the seedlings in comparison to the untreated control", "setting": "[4]; [9]", "result": "higher growth of the seedlings"}]}]}
